Reference: ChEMBL document CHEMBL3822432, “Antibacterial and anticancer activity of a series of novel peptides incorporating cyclic tetra-substituted C(α) amino acids” (Bioorg Med Chem, 2016)
Values after ≈ are worked out from the molar mass of the structure shown. Non-standard residues stand in square brackets, D forms with d. Residues, ends and D or L forms follow the SMILES beside them. Ac6c = NC1(C(=O)O)CCCCC1; Ac5c = NC1(C(=O)O)CCCC1

Key:
[1] = Antiproliferative activity against human UACC62 cells after 72 hrs by Celltiter-Glo luminescent cell viability assay; assay type: functional, cell-based; settings: UACC-62, 72 h
[2] = test system: Staphylococcus aureus; assay: Antibacterial activity against Staphylococcus aureus Seattle 1945 ATCC 25923 by two fold serial dilution method; assay type: functional
[3] = Antiproliferative activity against human PC3 cells after 72 hrs by Celltiter-Glo luminescent cell viability assay; assay type: functional, cell-based; settings: PC-3, 72 h
[4] = test system: CFPAC-1; assay: Antiproliferative activity against human CFPAC-1 cells after 72 hrs by Celltiter-Glo luminescent cell viability assay; assay type: functional, cell-based; settings: CFPAC-1, 72 h
[5] = Antibacterial activity against Clostridium difficile VIP 10463 ATCC 43255 by two fold serial dilution method; assay type: functional, Clostridium difficile ATCC 43255; settings: Clostridioides difficile
[6] = test system: Klebsiella aerogenes; assay: Antibacterial activity against carbapenem-resistant Enterobacter aerogenes NCDC819-56 ATCC 13048 by two fold serial dilution method; assay type: functional
[7] = Antibacterial activity against carbapenem-resistant Klebsiella pneumoniae K6 ATCC 700603 by two fold serial dilution method; assay type: functional, Klebsiella pneumoniae 700603
[8] = Antibacterial activity against Salmonella enterica LT2 Typhimurium ATCC 15277 by two fold serial dilution method; assay type: functional
[9] = Antiproliferative activity against human DLD1 cells after 72 hrs by Celltiter-Glo luminescent cell viability assay; assay type: functional, cell-based; settings: DLD-1, 72 h
[10] = test system: Streptococcus pneumoniae; assay: Antibacterial activity against Streptococcus pneumoniae 262 ATCC 49619 by two fold serial dilution method; assay type: functional
[11] = test system: NCI-H69; assay: Antiproliferative activity against human NCI-H69 cells after 72 hrs by Celltiter-Glo luminescent cell viability assay; assay type: functional, cell-based; settings: NCI-H69, 72 h
[12] = test system: Mycobacterium tuberculosis; assay: Antibacterial activity against Mycobacterium tuberculosis H37Ra ATCC 2517 by two fold serial dilution method; assay type: functional
[13] = test system: MCF7; assay: Antiproliferative activity against human MCF7 cells after 72 hrs by Celltiter-Glo luminescent cell viability assay; assay type: functional, cell-based; settings: MCF7, 72 h
[14] = test system: A498; assay: Antiproliferative activity against human A498 cells after 72 hrs by Celltiter-Glo luminescent cell viability assay; assay type: functional, cell-based; settings: A498, 72 h
[15] = test system: Staphylococcus aureus; assay: Antibacterial activity against methicillin-resistant Staphylococcus aureus USA 300 NRS 384 by two fold serial dilution method; assay type: functional
[16] = test system: Burkholderia pseudomallei; assay: Antibacterial activity against Burkholderia pseudomallei AHS 1 NCTC 8016 by two fold serial dilution method; assay type: functional
[17] = test system: Enterococcus faecalis; assay: Antibacterial activity against Enterococcus faecalis Portland ATCC 29212 by two fold serial dilution method; assay type: functional; settings: ATCC 29212 Portland
[18] = Antibacterial activity against Francisella tularensis SCHU S4 NR-643 by two fold serial dilution method; assay type: functional
[19] = test system: Acinetobacter baumannii; assay: Antibacterial activity against Acinetobacter baumannii B5W71 ATCC 15149 by two fold serial dilution method; assay type: functional
[20] = Antibacterial activity against Yersinia pestis CO92 NR641 by two fold serial dilution method; assay type: functional
[21] = Antiproliferative activity against human IGROV1 cells after 72 hrs by Celltiter-Glo luminescent cell viability assay; assay type: functional, cell-based; settings: IGROV-1, 72 h
[22] = test system: Pseudomonas aeruginosa; assay: Antibacterial activity against Pseudomonas aeruginosa Boston 41501 ATCC 27853 by two fold serial dilution method; assay type: functional
[23] = Antiproliferative activity against human COLO205 cells after 72 hrs by Celltiter-Glo luminescent cell viability assay; assay type: functional, cell-based; settings: COLO 205, 72 h
[24] = Antiproliferative activity against human MIAPaCa2 cells after 72 hrs by Celltiter-Glo luminescent cell viability assay; assay type: functional, cell-based; settings: MIA PaCa-2, 72 h
[25] = Antibacterial activity against Bacillus anthracis Ames NR-3838 by two fold serial dilution method; assay type: functional, Bacillus anthracis str. Ames
[26] = test system: Neisseria gonorrhoeae; assay: Antibacterial activity against Neisseria gonorrhoeae F-18 ATCC 49226 by two fold serial dilution method; assay type: functional
[27] = test system: A549; assay: Antiproliferative activity against human A549 cells after 72 hrs by Celltiter-Glo luminescent cell viability assay; assay type: functional, cell-based; settings: A549, 72 h
[28] = test system: RL; assay: Antiproliferative activity against human RL cells after 72 hrs by Celltiter-Glo luminescent cell viability assay; assay type: functional, cell-based

Structure (SMILES)	IC50 [1]	MIC [2]	IC50 [3]	IC50 [4]	MIC [5]	MIC [6]	MIC [7]	MIC [8]	IC50 [9]	MIC [10]	IC50 [11]	MIC [12]	IC50 [13]	IC50 [14]	MIC [15]	MIC [16]	MIC [17]	MIC [18]	MIC [20]	MIC [25]	also measured
CC(=O)NCC(=O)N[C@@H](Cc1ccccc1)C(=O)NC1(C(=O)NCC(=O)NC2(C(=O)N[C@@H](CCCNC(=N)N)C(=O)NC3(C(=O)NCC(=O)NC4(C(=O)N[C@@H](Cc5ccccc5)C(=O)NC5(C(=O)NCC(=O)NC6(C(=O)NCC(=O)N[C@@H](CCCNC(=N)N)C(=O)NC7(C(=O)N[C@@H](CCCNC(=N)N)C(=O)N[C@@H](CCCNC(=N)N)C(=O)N[C@@H](CCCNC(=N)N)C(=O)N[C@@H](CCCNC(=N)N)C(N)=O)CCCC7)CCCC6)CCCC5)CCCC4)CCCC3)CCCC2)CCCC1 (Ac-GF[Ac5c]G[Ac5c]R[Ac5c]G[Ac5c]F[Ac5c]G[Ac5c]GR[Ac5c]RRRR-NH2)	> 7.5 µM	2.65 µM (≈ 6.24 µg/mL)	> 7.5 µM	> 7.5 µM	5.31 µM (≈ 12.5 µg/mL)	> 42.4 µM	5.31 µM (≈ 12.5 µg/mL)	42.4 µM (≈ 99.9 µg/mL)	> 7.5 µM	> 43 µM	7.1 µM	21.2 µM (≈ 49.9 µg/mL)	> 7.5 µM	> 7.5 µM	5.31 µM (≈ 12.5 µg/mL)	> 43 µM	5.31 µM (≈ 12.5 µg/mL)	21.2 µM (≈ 49.9 µg/mL)	> 43 µM	2.65 µM (≈ 6.24 µg/mL)	MIC [19]: 2.65 µM (≈ 6.24 µg/mL); IC50 [21]: > 7.5 µM; MIC [22]: 2.65 µM (≈ 6.24 µg/mL); IC50 [23]: > 7.5 µM; IC50 [24]: > 7.5 µM; MIC [26]: 5.31 µM (≈ 12.5 µg/mL); IC50 [27]: > 7.5 µM; IC50 [28]: 3.7 µM
CC(=O)NCC(=O)N[C@@H](Cc1ccccc1)C(=O)NC1(C(=O)NCC(=O)NC2(C(=O)N[C@@H](CCCNC(=N)N)C(=O)NC3(C(=O)NCC(=O)NC4(C(=O)N[C@@H](Cc5ccccc5)C(=O)NC5(C(=O)NCC(=O)NC6(C(=O)NCC(=O)N[C@@H](CCCNC(=N)N)C(=O)NC7(C(=O)N[C@@H](CCCNC(=N)N)C(=O)N[C@@H](CCCNC(=N)N)C(=O)N[C@@H](CCCNC(=N)N)C(=O)N[C@@H](CCCNC(=N)N)C(N)=O)CCCCC7)CCCCC6)CCCCC5)CCCCC4)CCCCC3)CCCCC2)CCCCC1 (Ac-GF[Ac6c]G[Ac6c]R[Ac6c]G[Ac6c]F[Ac6c]G[Ac6c]GR[Ac6c]RRRR-NH2)	6.4 µM	1.28 µM (≈ 3.14 µg/mL)	7.4 µM	2.6 µM	2.55 µM (≈ 6.25 µg/mL)	2.55 µM (≈ 6.25 µg/mL)	20.4 µM (≈ 49.9 µg/mL)	5.09 µM (≈ 12.5 µg/mL)	6.4 µM	10.2 µM (≈ 25 µg/mL)	2 µM	40.8 µM (≈ 99.9 µg/mL)	7 µM	5.6 µM	5.09 µM (≈ 12.5 µg/mL)	> 41 µM	1.28 µM (≈ 3.14 µg/mL)	40.8 µM (≈ 99.9 µg/mL)	> 41 µM	2.56 µM (≈ 6.28 µg/mL)	MIC [19]: 2.55 µM (≈ 6.25 µg/mL); IC50 [21]: 6 µM; MIC [22]: 2.55 µM (≈ 6.25 µg/mL); IC50 [23]: 6.6 µM; IC50 [24]: 5 µM; MIC [26]: 2.56 µM (≈ 6.28 µg/mL); IC50 [27]: 6.4 µM; IC50 [28]: 1.1 µM
C[C@H]1c2cccc(O)c2C(=O)C2=C(O)[C@]3(O)C(=O)C(C(N)=O)=C(O)[C@@H](N(C)C)[C@@H]3[C@@H](O)[C@@H]21 [DOXYCYCLINE]																		1.1 µM (≈ 0.489 µg/mL)	1.1 µM (≈ 0.489 µg/mL)	0.87 µM (≈ 0.387 µg/mL)	
CN[C@@H](CC(C)C)C(=O)N[C@H]1C(=O)N[C@@H](CC(N)=O)C(=O)N[C@H]2C(=O)N[C@H]3C(=O)N[C@H](C(=O)N[C@@H](C(=O)O)c4cc(O)cc(O)c4-c4cc3ccc4O)[C@H](O)c3ccc(c(Cl)c3)Oc3cc2cc(c3O[C@H]2O[C@@H](CO)[C@H](O)[C@@H](O)[C@@H]2O[C@@H]2C[C@@](C)(N)[C@@H](O)[C@@H](C)O2)Oc2ccc(cc2Cl)[C@H]1O					0.17 µM (≈ 0.246 µg/mL)					1.99 µM (≈ 2.88 µg/mL)					2.7 µM (≈ 3.91 µg/mL)						
